# Measured values taken from patent publication US20250282761A1, “SALT AND CRYSTAL FORMS OF AN EPIDERMAL GROWTH FACTOR RECEPTOR INHIBITOR” (Blueprint Medicines Corporation, priority 2022, published 2025).
# Structures can show the parent of a compound that is named as a salt.
# Assay: Pharmacokinetics following oral (PO) administration to male beagle dogs
# Assay type: in vivo
# Conditions: single 30 mg/kg PO (free base equivalent)
# Protocol: Male beagle dogs (3 in each treatment group) were administered orally 30 mg/kg of Compound (I) free base or mesylate salt of Compound (I) in a dose equivalent to 30 mg/kg of free base. The free base and the mesylate salt were suspended/dissolved in an appropriate volume of vehicle solution containing 0.5% hydroxypropyl methylcellulose (w/v) with 0.2% Tween 80 (v/v) in deionized water. The PO doses were administered into the stomach via syringe and gavage tube followed by a 5 mL water flush. Dose volumes were adjusted for the weight of the animal on the morning of dose administration. Blood samples were collected at 0, 0.5, 1, 2, 4, 6, 8, 10, 12, and 24 h postdose from an accessible vein with preference to the jugular vein. Blood samples were kept on ice until processing. All blood samples were centrifuged within 1 h of collection at 3200 RPM for 10 min at 5° C. Plasma samples were directly transferred into cluster tubes and stored at −20°±5° C. until shipment. […] Animals were fasted on the evening prior to dosing with food returned at 4 h postdose.
SMILES,"in vivo exposure (plasma concentration, FIG. 7) (0-24 h)",appearance of animals at dose administration and blood collection time points
C=CC(=O)Nc1ccc(F)c(Nc2nc(Nc3cnn(C)c3)ncc2-c2ccc(C(F)(F)F)cc2)c1 [mesylate salt of Compound (I)],higher in vivo exposure,
"C=CC(=O)Nc1ccc(F)c(Nc2nc(Nc3cnn(C)c3)ncc2-c2ccc(C(F)(F)F)cc2)c1 [Compound (I) free base, N-(4-fluoro-3-((2-((1-methyl-1H-pyrazol-4-yl)amino)-5-(4-(trifluoromethyl)phenyl)pyrimidin-4-yl)amino)phenyl)acrylamide]",,appeared normal
